Results from US20110015371A1 (Vertex Pharmaceuticals Incorporated, priority 1994, published 2011).

Experiments:
[1] = test system: Human Peripheral Blood Mononuclear Cells (PBMC) or Enriched Adherent Mononuclear Cells; assay: Cell assay: IL-1β assay with human PBMC or enriched adherent mononuclear cells; assay type: cell-based; conditions: LPS-stimulated cells, mature IL-1β in supernatant by ELISA
Summary of the method: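 Human PBMC (suspension at 6×10^6 cells/ml) or adherent monocytes enriched by 1 h plating (2.5−3.0×10^5 cells/well) were stimulated with 5 ng/ml LPS (final) plus compound (5-6 dilutions, 0.1% DMSO final) for 16-18 hr at 37° C. Mature IL-1β in supernatants quantified by ELISA; duplicate cultures, duplicate ELISAs.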

ICE = target: T1, ICE (Homo sapiens, UniProt P29466); assay: Enzyme assay with UV-visible substrate (Succinyl-Tyr-Val-Ala-Asp-pNitroanilide); assay type: biochemical
T1 sequence (P29466 120-297 limits assumed): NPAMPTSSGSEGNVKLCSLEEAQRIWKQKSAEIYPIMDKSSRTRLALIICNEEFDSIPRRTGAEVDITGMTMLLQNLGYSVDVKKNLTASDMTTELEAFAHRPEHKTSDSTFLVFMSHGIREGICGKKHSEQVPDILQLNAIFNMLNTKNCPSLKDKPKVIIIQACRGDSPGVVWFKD
T1 sequence (P29466 317-404 limits assumed): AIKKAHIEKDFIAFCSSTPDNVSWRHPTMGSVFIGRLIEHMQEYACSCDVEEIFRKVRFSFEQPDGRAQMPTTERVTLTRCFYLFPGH
Description: 1. Enzyme Assay with UV-Visible Substrate
This assay is run using an Succinyl-Tyr-Val-Ala-Asp-pNitroanilide substrate. Synthesis of analogous substrates is described by L. A. Reiter (Int. J. Peptide Protein Res. 43, 87-96 (1994)). The assay mixture contains:
The visible ICE assay is run in a 96-well microtiter plate. Buffer, ICE and DMSO (if inhibitor is present) are added to the wells in the order listed. The components are left to incubate at room temperature for 15 minutes starting at the time that all components are present in all wells. The microtiter plate reader is set to incubate at 37° C. After the 15 minute incubation, substrate is added directly to the wells and the reaction is monitored by following the release of the chromophore (pNA) at 405-603 nm at 37° C. for 20 minutes. A linear fit of the data is performed and the rate is calculated in mOD/min. DMSO is only present during experiments involving inhibitors, buffer is used to make up the volume to 100 μl in the other experiments.
For determination of enzyme inhibition constants (Ki) or the mode of inhibition (competitive, uncompetitive or noncompetitive), the rate data determined in the enzyme assays at varying inhibitor concentrations are computer-fit to standard enzyme kinetic equations (see I. H. Segel, Enzyme Kinetics, Wiley-Interscience, 1975).

[2] = Homo sapiens, PBMC, Example 4 table
[3] = Homo sapiens, PBMC, Example 6 table

Ki (ICE; Example 6 table) | Molecule | IC50 [1, 3] | also measured
0.34 µM | CC(C)[C@H](NC(=O)OCc1ccccc1)C(=O)N[C@@H](C)C(=O)N[C@@H](CC(=O)O)C(=O)c1ncc(-c2ccccc2)o1 [Compound 145] | 8.5 µM | –
10 µM | CC(C)[C@H](NC(=O)OCc1ccccc1)C(=O)N[C@@H](C)C(=O)NC(CC(=O)O)C(=O)c1ncc(-c2ccccc2)[nH]1 (some centres unmarked) [Compound 150] | 30 µM | –
13 µM | CC(C)[C@H](NC(=O)OCc1ccccc1)C(=O)N[C@@H](C)C(=O)NC(CC(=O)O)C(=O)c1ncc[nH]1 (some centres unmarked) [Compound 151] | 30 µM | –
0.0017 µM | COc1cccc2nc(C(=O)[C@H](CC(=O)O)NC(=O)[C@@H]3C[C@@H](Oc4ccccc4)CN3C(=O)[C@@H](NC(=O)[C@H](Cc3ccc(O)cc3)NC(C)=O)C(C)C)oc12 [Compound 159] | 8 µM | –
0.145 µM | CC(=O)N[C@H](C(=O)N1C[C@H](Oc2ccccc2)C[C@H]1C(=O)N[C@@H](CC(=O)O)C(=O)c1ncc(-c2c(Cl)cccc2Cl)o1)C(C)C [Compound 160] | 2.25 µM | –
0.0028 µM | CC(=O)N[C@@H](Cc1ccc(O)cc1)C(=O)N[C@H](C(=O)N[C@@H](C)C(=O)N[C@@H](CC(=O)O)C(=O)c1ncc(-c2c(Cl)cccc2Cl)o1)C(C)C [Compound 163] | 1.2 µM | –

More lines, now with the values behind:

Molecule | Ki (ICE; Example 6 table) | IC50 [1, 3] | also measured
CC(=O)N[C@@H](Cc1ccc(O)cc1)C(=O)N[C@H](C(=O)N[C@@H](C)C(=O)N[C@H](CC(=O)O)C(=O)COCc1c(Cl)cccc1Cl)C(C)C (mixture of isomers) [Compound 84b, (R,S)N-[N-(Acetyl)tyrosinyl-valinyl-alaninyl]-3-amino-5-(2,6-dichlorophenylmethyloxy)-4-oxo-pentanoic acid] | – | – | IC50 [1, 2]: 0.5 µM; melting point: 165 to 168 °C
C[C@H](NC(=O)c1nc(Cc2ccccc2)c[nH]1)C(=O)N[C@H](C=O)CC(=O)O [Compound 20b, (3S)3-[N-(4-Benzylimidazole-2-carbonyl)-L-alaninyl]amino-4-oxobutanoic acid] | – | – | IC50 [1, 2]: 16.4 µM; melting point: 113 to 115 °C
C[C@H](NC(=O)c1ncc(CCc2ccccc2)[nH]1)C(=O)N[C@H](C=O)CC(=O)O [Compound 20c, (3S)3-{N-[4-(2-Phenylethyl)imidazole-2-carbonyl]-L-alaninyl}amino-4-oxobutanoic acid] | – | – | melting point: 102 to 104 °C
O=C[C@H](CC(=O)O)NC(=O)[C@@H]1CCCN1C(=O)c1nc(CCc2ccccc2)c[nH]1 [Compound 21c, (3S)3{N-[4-(2-Phenylethyl)imidazole-2-carbonyl]-L-prolinyl}amino-4-oxobutanoic acid] | – | – | melting point: 101 to 103 °C
CC(C)[C@H](NC(=O)OCc1ccccc1)C(=O)N[C@@H](C)C(=O)N[C@@H](CC(=O)O)C(=O)c1ncc(-c2c(Cl)cccc2Cl)o1 [Compound 146] | 0.16 µM | 3.8 µM | –
CC(C)[C@H](NC(=O)OCc1ccccc1)C(=O)N[C@@H](C)C(=O)N[C@@H](CC(=O)O)C(=O)c1ncc(-c2ccccc2Cl)o1 [Compound 147] | 0.26 µM | 8.5 µM | –
CC(C)[C@H](NC(=O)OCc1ccccc1)C(=O)N[C@@H](C)C(=O)N[C@@H](CC(=O)O)C(=O)c1nccs1 [Compound 148] | 6.3 µM | 30 µM | –
CC(C)[C@H](NC(=O)OCc1ccccc1)C(=O)N[C@@H](C)C(=O)N[C@@H](CC(=O)O)C(=O)c1cocn1 [Compound 149] | 14 µM | > 30 µM | –
CC(=O)N[C@@H](Cc1ccc(O)cc1)C(=O)N[C@H](C(=O)N[C@@H](C)C(=O)N[C@@H](CC(=O)O)C(=O)c1ncc(-c2c(Cl)cccc2Cl)s1)C(C)C [Compound 154] | 0.042 µM | 2.4 µM | –
CC(=O)N[C@@H](Cc1ccc(O)cc1)C(=O)N[C@H](C(=O)N1C[C@H](Oc2ccccc2)C[C@H]1C(=O)N[C@@H](CC(=O)O)C(=O)c1ncc(-c2c(Cl)cccc2Cl)o1)C(C)C [Compound 156] | 0.001 µM | 2.7 µM | –
(3S)t-Butyl N-(N-acetyl-(S)-tyrosinyl-(S)-valinyl-(S)-alaninyl)-3-amino-4-(2-(4-methoxybenzoxazolyl))-4-oxobutanoate [Compound 69b] | – | – | Ki (ICE; Example 4 table): 0.05 µM; IC50 ([1]; Example 4 table): 0.745 µM
